test system: MDA-231 cancer cells; test: Inhibition of proliferation assay, cell confluence (IncuCyte live cell imaging); type: cell-based; conditions: MDA-231 cells, concentration 10 uM; relative confluence normalised to time zero, images every 3 h over 4-5 d
Text: Inhibition of Proliferation Assay Cell Confluence The confluence value is a surrogate for cell proliferation and growth. The value is expressed as a percent confluence, which represents the fraction of culture dish-surface that is occupied by cells. As the number of cells in the dish increases over time due to proliferation, so will their coverage of that surface increase. Expansion of the cell population on the cell culture-dish surface and confluence have mostly a linear relationship until the cells on the plate surface begin to reach saturation or maximum density. Confluence is determined based on image analysis. Image based software can identify objects in the image field base on changes to pixel density in a grey scale image. The software can then assign a mask to those pixels within the object. Objects can be ‘gated’ out based on size and shape. To determine cell confluence, images of cells are first masked as objects. The surface area of the image that is masked is measured and compared to the total surface area of the culture dish surface to obtain a percent confluence. MDA-231 cancer cells were obtained from ATCC. Cells were cultured in Dulbecco's Modified Eagle Medium (DMEM) supplemented with 10% Fetal Bovine Serum (FBS), 2 mM Glutamax, 1 mM Non Essential Amino Acid (NEAA) solution and 1 mM sodium pyruvate. Compounds were dissolved in DMSO at 10 mM and diluted in cellular medium and tested at 10 μM (micromolar). Final DMSO concentrations were <0.1%. Images were acquired with an IncuCyte Live Cell Imaging microscopy (Essen Bioscience) at every 3 h under cell culture conditions with 10× objective over 4-5 d. Cell confluence was calculated from one field of view per well using the IncuCyte in-built algorithm. Relative confluence values were obtained by normalising each value to the time zero value in each sample.

Row | Compound | % Confluence
1 | CC[C@H]1OC(=O)[C@H](C)[C@@H](O[C@H]2C[C@@](C)(OC)[C@@H](O)[C@H](C)O2)[C@H](C)[C@@H](O[C@@H]2O[C@H](C)C[C@H](N(C)C)[C@H]2O)[C@](C)(O)C[C@@H](C)CN(C(=O)CCCCCCCCCCCCC[P+](c2ccccc2)(c2ccccc2)c2ccccc2)[C@H](C)[C@@H](O)[C@]1(C)O [Example 1, {14-[(2R,3S,4R,5R,8R,10R,11R,12S,13S,14R)-11-{[(2S,3R,4S,6R)-4-(dimethylamino)-3-hydroxy-6-methyloxan-2-yl]oxy}-2-ethyl-3,4,10-trihydroxy-13-{[(2R,4R,5S,6S)-5-hydroxy-4-methoxy-4,6-dimethyloxan-2-yl]oxy}-3,5,8,10,12,14-hexamethyl-15-oxo-1-oxa-6-azacyclopentadecan-6-yl]-14-oxotetradecyl}triphenylphosphonium hexafluorophosphate(V)] | 4.2%
2 | CC[C@H]1OC(=O)[C@H](C)[C@@H](O[C@H]2C[C@@](C)(OC)[C@@H](O)[C@H](C)O2)[C@H](C)[C@@H](O[C@@H]2O[C@H](C)C[C@H](N(C)C)[C@H]2O)[C@](C)(O)C[C@@H](C)CN(C(=O)CCCCCCCCC[P+](c2ccccc2)(c2ccccc2)c2ccccc2)[C@H](C)[C@@H](O)[C@]1(C)O [Example 2, {10-[(2R,3S,4R,5R,8R,10R,11R,12S,13S,14R)-11-{[(2S,3R,4S,6R)-4-(dimethylamino)-3-hydroxy-6-methyloxan-2-yl]oxy}-2-ethyl-3,4,10-trihydroxy-13-{[(2R,4R,5S,6S)-5-hydroxy-4-methoxy-4,6-dimethyloxan-2-yl]oxy}-3,5,8,10,12,14-hexamethyl-15-oxo-1-oxa-6-azacyclopentadecan-6-yl]-10-oxodecyl}triphenylphosphonium hexafluorophosphate(V)] | 13.4%
3 | CC[C@H]1OC(=O)[C@H](C)[C@@H](O[C@H]2C[C@@](C)(OC)[C@@H](O)[C@H](C)O2)[C@H](C)[C@@H](O[C@@H]2O[C@H](C)C[C@H](N(C)C)[C@H]2O)[C@](C)(O)C[C@@H](C)CN(C(=O)CCCCCCCC[P+](c2ccccc2)(c2ccccc2)c2ccccc2)[C@H](C)[C@@H](O)[C@]1(C)O [Example 3, {9-[(2R,3S,4R,5R,8R,10R,11R,12S,13S,14R)-11-{[(2S,3R,4S,6R)-4-(dimethylamino)-3-hydroxy-6-methyloxan-2-yl]oxy}-2-ethyl-3,4,10-trihydroxy-13-{[(2R,4R,5S,6S)-5-hydroxy-4-methoxy-4,6-dimethyloxan-2-yl]oxy}-3,5,8,10,12,14-hexamethyl-15-oxo-1-oxa-6-azacyclopentadecan-6-yl]-9-oxononyl}triphenylphosphonium hexafluorophosphate(V)] | 98.4%
4 | CC[C@H]1OC(=O)[C@H](C)[C@@H](O[C@H]2C[C@@](C)(OC)[C@@H](O)[C@H](C)O2)[C@H](C)[C@@H](O[C@@H]2O[C@H](C)C[C@H](N(C)C)[C@H]2O)[C@](C)(O)C[C@@H](C)CN(C(=O)CCCCCC[P+](c2ccccc2)(c2ccccc2)c2ccccc2)[C@H](C)[C@@H](O)[C@]1(C)O [Example 4, {7-[(2R,3S,4R,5R,8R,10R,11R,12S,13S,14R)-11-{[(2S,3R,4S,6R)-4-(dimethylamino)-3-hydroxy-6-methyloxan-2-yl]oxy}-2-ethyl-3,4,10-trihydroxy-13-{[(2R,4R,5S,6S)-5-hydroxy-4-methoxy-4,6-dimethyloxan-2-yl]oxy}-3,5,8,10,12,14-hexamethyl-15-oxo-1-oxa-6-azacyclopentadecan-6-yl]-7-oxoheptyl}triphenylphosphonium hexafluorophosphate(V)] | 89.9%
5 | CC[C@H]1OC(=O)[C@H](C)[C@@H](O[C@H]2C[C@@](C)(OC)[C@@H](O)[C@H](C)O2)[C@H](C)[C@@H](O[C@@H]2O[C@H](C)C[C@H](N(C)C)[C@H]2O)[C@](C)(O)C[C@@H](C)CN(C(=O)CCCCCCCCCCC[P+](c2ccccc2)(c2ccccc2)c2ccccc2)[C@H](C)[C@@H](O)[C@]1(C)O [Example 5, {12-[(2R,3S,4R,5R,8R,10R,11R,12S,13S,14R)-11-{[(2S,3R,4S,6R)-4-(dimethylamino)-3-hydroxy-6-methyloxan-2-yl]oxy}-2-ethyl-3,4,10-trihydroxy-13-{[(2R,4R,5S,6S)-5-hydroxy-4-methoxy-4,6-dimethyloxan-2-yl]oxy}-3,5,8,10,12,14-hexamethyl-15-oxo-1-oxa-6-azacyclopentadecan-6-yl]-12-oxododecyl}triphenylphosphonium hexafluorophosphate(V)] | 5%
6 | CC[C@H]1OC(=O)[C@H](C)[C@@H](O[C@H]2C[C@@](C)(OC)[C@@H](O)[C@H](C)O2)[C@H](C)[C@@H](O[C@@H]2O[C@H](C)C[C@H](N(C)C)[C@H]2O)[C@](C)(O)C[C@@H](C)CN(C(=O)CCCCC[PH](c2ccccc2)(c2ccccc2)c2ccccc2)[C@H](C)[C@@H](O)[C@]1(C)O [Example 6, {6-[(2R,3S,4R,5R,8R,10R,11R,12S,13S,14R)-11-{[(2S,3R,4S,6R)-4-(dimethylamino)-3-hydroxy-6-methyloxan-2-yl]oxy}-2-ethyl-3,4,10-trihydroxy-13-{[(2R,4R,5S,6S)-5-hydroxy-4-methoxy-4,6-dimethyloxan-2-yl]oxy}-3,5,8,10,12,14-hexamethyl-15-oxo-1-oxa-6-azacyclopentadecan-6-yl]-6-oxohexyl}triphenylphosphonium hexafluorophosphate(V)] | 118.9%
7 | CC[C@H]1OC(=O)[C@H](C)[C@@H](O[C@H]2C[C@@](C)(OC)[C@@H](O)[C@H](C)O2)[C@H](C)[C@@H](O[C@@H]2O[C@H](C)C[C@H](N(C)C)[C@H]2O)[C@](C)(O)C[C@@H](C)CN(CCCCCCCC[P+](c2ccccc2)(c2ccccc2)c2ccccc2)[C@H](C)[C@@H](O)[C@]1(C)O.[I-] [Example 7, {8-[(2R,3S,4R,5R,8R,10R,11R,12S,13S,14R)-11-{[(2S,3R,4S,6R)-4-(dimethylamino)-3-hydroxy-6-methyloxan-2-yl]oxy}-2-ethyl-3,4,10-trihydroxy-13-{[(2R,4R,5S,6S)-5-hydroxy-4-methoxy-4,6-dimethyloxan-2-yl]oxy}-3,5,8,10,12,14-hexamethyl-15-oxo-1-oxa-6-azacyclopentadecan-6-yl]octyl}triphenylphosphonium iodide] | 23.3%
8 | CC[C@H]1OC(=O)[C@H](C)[C@@H](O[C@H]2C[C@@](C)(OC)[C@@H](O)[C@H](C)O2)[C@H](C)[C@@H](O[C@@H]2O[C@H](C)C[C@H](N(C)C)[C@H]2O)[C@](C)(O)C[C@@H](C)CN(CCCCCC[P+](c2ccccc2)(c2ccccc2)c2ccccc2)[C@H](C)[C@@H](O)[C@]1(C)O [Example 8, {6-[(2R,3S,4R,5R,8R,10R,11R,12S,13S,14R)-11-{[(2S,3R,4S,6R)-4-(dimethylamino)-3-hydroxy-6-methyloxan-2-yl]oxy}-2-ethyl-3,4,10-trihydroxy-13-{[(2R,4R,5S,6S)-5-hydroxy-4-methoxy-4,6-dimethyloxan-2-yl]oxy}-3,5,8,10,12,14-hexamethyl-15-oxo-1-oxa-6-azacyclopentadecan-6-yl]hexyl}triphenylphosphonium iodide] | 109.9%

— patent publication US11560395B2, “Azithromycin derivatives containing a phosphonium ion as anticancer agents” (Rising Tide Foundation, priority 2017, dated 2023)
